In US12612360B2 (Sanofi, priority 2020, dated 2026):

Target: T1, ERα (Homo sapiens, UniProt P03372)
T1 construct: host or cells: MCF7
T1 sequence (P03372 1-595): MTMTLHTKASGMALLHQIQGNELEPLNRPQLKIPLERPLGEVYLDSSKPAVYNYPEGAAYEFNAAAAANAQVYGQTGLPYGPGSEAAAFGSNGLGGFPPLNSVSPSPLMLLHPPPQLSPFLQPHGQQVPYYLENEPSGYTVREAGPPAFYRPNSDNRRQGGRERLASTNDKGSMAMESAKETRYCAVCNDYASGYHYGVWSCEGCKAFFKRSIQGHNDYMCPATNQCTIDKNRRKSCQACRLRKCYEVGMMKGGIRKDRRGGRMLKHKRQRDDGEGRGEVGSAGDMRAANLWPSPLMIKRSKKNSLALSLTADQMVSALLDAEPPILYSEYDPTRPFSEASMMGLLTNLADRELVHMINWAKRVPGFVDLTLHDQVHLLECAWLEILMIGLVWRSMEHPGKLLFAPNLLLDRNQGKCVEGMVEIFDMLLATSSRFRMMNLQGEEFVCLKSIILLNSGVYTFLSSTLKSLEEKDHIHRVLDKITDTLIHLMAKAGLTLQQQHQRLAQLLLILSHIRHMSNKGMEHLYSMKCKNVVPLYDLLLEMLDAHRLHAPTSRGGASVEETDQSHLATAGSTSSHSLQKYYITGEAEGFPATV
Experiment: Estrogen receptor degradation activity: breast cancer cell ERα in cell western assay (MCF7 cells)
Assay type: cell-based
Settings: for % Degradation At 0.3 μM: 4 hours, relative to fulvestrant 0.1 μM positive control; for DC50: 4 hours post compound addition, concentration which degrades 50% of the estrogen receptor, read-out: Degradation IC50
Summary of the method: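 In-cell western readout: ERα immunofluorescence (Alexa 488) normalised to DNA signal (Syto-64) after formalin fixation. Compounds dosed for 4 h on MCF7 cells in stripped-serum, phenol-red-free medium over nine 1:5 steps, 0.3 to […] final; fulvestrant 0.1 μM control. IC50 in nM for 50% ERα degradation.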

% Degradation At 0.3 μM	DC50	Compound
92%	1 nM	O=C(O)c1ccc2c(c1)CCCC(c1cccc(C(F)(F)F)c1Cl)=C2c1ccc(C=C2CN(CCC(F)F)C2)cc1 [Example 133, 8-(2-chloro-3-(trifluoromethyl)phenyl)-9-(4-((1-(3,3-difluoropropyl)azetidin-3-ylidene)methyl)phenyl)-6,7-dihydro-5H-benzo[7]annulene-3-carboxylic acid]
90%	0.3 nM	Cc1cc(C(F)(F)F)ccc1C1=C(c2ccc(C=C3CN(CCC(F)(F)F)C3)cc2)c2ccc(C(=O)O)cc2CCC1 [Example 113, 8-(2-methyl-4-(trifluoromethyl)phenyl)-9-(4-((1-(3,3,3-trifluoropropyl)azetidin-3-ylidene)methyl)phenyl)-6,7-dihydro-5H-benzo[7]annulene-3-carboxylic acid]
90%	0.3 nM	Cc1cc(C(F)(F)F)ccc1C1=C(c2ccc(C=C3CN(CCCF)C3)cc2)c2ccc(C(=O)O)cc2CCC1 [Example 3, 9-(4-((1-(3-fluoropropyl)azetidin-3-ylidene)methyl)phenyl)-8-(2-methyl-4-(trifluoromethyl)phenyl)-6,7-dihydro-5H-benzo[7]annulene-3-carboxylic acid]
95%	0.2 nM	O=C(O)c1ccc2c(c1)CCCC(c1cccc(F)c1C(F)(F)F)=C2c1ccc(C=C2CN(CCCF)C2)cc1 [Example 24, 8-(3-fluoro-2-(trifluoromethyl)phenyl)-9-(4-((1-(3-fluoropropyl)azetidin-3-ylidene)methyl)phenyl)-6,7-dihydro-5H-benzo[7]annulene-3-carboxylic acid]
94%	1 nM	O=C(O)c1ccc2c(c1)CCCC(c1cccc(F)c1F)=C2c1ccc(C=C2CN(CCCF)C2)cc1 [Example 55, 8-(2,3-difluorophenyl)-9-(4-((1-(3-fluoropropyl)azetidin-3-ylidene)methyl)phenyl)-6,7-dihydro-5H-benzo[7]annulene-3-carboxylic acid]
93%	0.4 nM	O=C(O)c1ccc2c(c1)CCCC(c1ccc(C(F)(F)F)cc1C(F)(F)F)=C2c1ccc(C=C2CN(CCCF)C2)cc1 [Example 16, 8-(2,4-bis(trifluoromethyl)phenyl)-9-(4-((1-(3-fluoropropyl)azetidin-3-ylidene)methyl)phenyl)-6,7-dihydro-5H-benzo[7]annulene-3-carboxylic acid]
95%	0.3 nM	O=C(O)c1ccc2c(c1)CCCC(CCc1ccccc1)=C2c1ccc(C=C2CN(CCCF)C2)cc1 [Example 168, 9-(4-((1-(3-fluoropropyl)azetidin-3-ylidene)methyl)phenyl)-8-phenethyl-6,7-dihydro-5H-benzo[7]annulene-3-carboxylic acid]
93%	1.9 nM	O=C(O)c1ccc2c(c1)CCCC(c1cc(F)cc3c1CCC3)=C2c1ccc(C=C2CN(CCC(F)F)C2)cc1 [Example 162, 9-(4-((1-(3,3-difluoropropyl)azetidin-3-ylidene)methyl)phenyl)-8-(6-fluoro-2,3-dihydro-1H-inden-4-yl)-6,7-dihydro-5H-benzo[7]annulene-3-carboxylic acid]
95%	0.6 nM	CC1CCc2cc(C(=O)O)ccc2C(c2ccc(C=C3CN(CCCF)C3)cc2)=C1c1ccc(Cl)cc1Cl (racemic) [Example 166, 8-(2,4-Dichlorophenyl)-9-(4-((1-(3-fluoropropyl)azetidin-3-ylidene)methyl)phenyl)-7-methyl-6,7-dihydro-5H-benzo[7]annulene-3-carboxylic acid, racemic mixture]
92%	3.7 nM	COc1ccc(C(F)(F)F)cc1C1=C(c2ccc(C=C3CN(CCCF)C3)cc2)c2ccc(C(=O)O)cc2CCC1 [Example 137]
93%	1.1 nM	Cc1c(C2=C(c3ccc(C=C4CN(CCC(F)F)C4)cc3)c3ccc(C(=O)O)cc3CCC2)cccc1C(F)(F)F [Example 134, 9-(4-((1-(3,3-difluoropropyl)azetidin-3-ylidene)methyl)phenyl)-8-(2-methyl-3-(trifluoromethyl)phenyl)-6,7-dihydro-5H-benzo[7]annulene-3-carboxylic acid]
96%	0.3 nM	Cc1cc(F)ccc1C1=C(c2c(F)cc(C=C3CN(CCCF)C3)cc2F)c2ccc(C(=O)O)cc2CCC1 [Example 68]
92%	0.4 nM	Cl.O=C(O)c1ccc2c(c1)CCCC(c1ccccc1C(F)(F)F)=C2c1ccc(C=C2CN(CCCF)C2)cc1 [Example 183, 9-(4-((1-(3-fluoropropyl)azetidin-3-ylidene)methyl)phenyl)-8-(2-(trifluoromethyl)phenyl)-6,7-dihydro-5H-benzo[7]annulene-3-carboxylic acid hydrochloride]
91%	0.2 nM	O=C(O)c1ccc2c(c1)CCCC(c1c(F)cccc1Cl)=C2c1ccc(C=C2CN(CCCF)C2)cc1 [Example 42, 8-(2-chloro-6-fluorophenyl)-9-(4-((1-(3-fluoropropyl)azetidin-3-ylidene)methyl)phenyl)-6,7-dihydro-5H-benzo[7]annulene-3-carboxylic acid]
97%	0.6 nM	Cc1cc(C=C2CN(CCCF)C2)ccc1C1=C(c2ccc(Cl)cc2Cl)CCCc2cc(C(=O)O)ccc21.Cl [Example 93, 8-(2,4-dichlorophenyl)-9-(4-((1-(3-fluoropropyl)azetidin-3-ylidene)methyl)-2-methylphenyl)-6,7-dihydro-5H-benzo[7]annulene-3-carboxylic acid hydrochloride]
95%	1.4 nM	O=C(O)c1ccc2c(c1)CCCC(C1CC3CCC(C3)C1)=C2c1ccc(C=C2CN(CCCF)C2)cc1 (centres unmarked) [Example 178, 8-(bicyclo[3.2.1]octan-3-yl)-9-(4-((1-(3-fluoropropyl)azetidin-3-ylidene)methyl)phenyl)-6,7-dihydro-5H-benzo[7]annulene-3-carboxylic acid]
94%	0.4 nM	O=C(O)c1ccc2c(c1)CCCC(c1ccc(Cl)cc1Cl)=C2c1ncc(C=C2CN(CCCF)C2)cc1F [Example 158, 8-(2,4-Dichlorophenyl)-9-(3-fluoro-5-((1-(3-fluoropropyl)azetidin-3-ylidene)methyl)pyridin-2-yl)-6,7-dihydro-5H-benzo[7]annulene-3-carboxylic acid]
93%	0.2 nM	Cc1ccc(C2=C(c3ccc(C=C4CN(CCCF)C4)cc3)c3ccc(C(=O)O)cc3CCC2)c(F)c1 [Example 57, 8-(2-fluoro-4-methylphenyl)-9-(4-((1-(3-fluoropropyl)azetidin-3-ylidene)methyl)phenyl)-6,7-dihydro-5H-benzo[7]annulene-3-carboxylic acid]
98%	0.3 nM	O=C(O)c1ccc2c(c1)CCCC(c1ccc(C(F)(F)F)cc1F)=C2c1ccc(C=C2CN(CCCF)C2)cc1 [Example 49, 8-(2-fluoro-4-(trifluoromethyl)phenyl)-9-(4-((1-(3-fluoropropyl)azetidin-3-ylidene)methyl)phenyl)-6,7-dihydro-5H-benzo[7]annulene-3-carboxylic acid]
